Here are results for 40 molecules from patent US20130296311A1, “INHIBITORS OF HCV NS5A” (PRESIDIO PHARMACEUTICALS, INC., priority 2010, published 2013).

pEC50: −log10 of the molar value.

The first experiment concerns HCV 1b_Huh-Luc/Neo-ET cell line persistently expressing a bicistronic genotype 1b replicon in Huh 7 cells. Kind of experiment: HCV replicon assay (luciferase readout, 72 h). The class given is cell-based, HCV genotype 1b. Conditions: Hepatitis C virus, Huh-7, 72 h, read-out: Inhibition of HCV genotype 1b. In outline:
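Huh 7 cells carrying a bicistronic genotype 1b luciferase/neo replicon received compound in triplicate the day after plating. After 72 h, replicon levels were read as Bright-Glo luciferase activity, expressed as % of control; EC50 was fitted with a four-parameter logistic and determined several times.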
Turning to `O=C(N[C@@H](C(=O)N1CCC[C@H]1C(=O)Nc1ccc(C#Cc2cnc([C@@H]3CCCN3C(=O)[C@H](NC(=O)C3CC3)c3ccccc3)[nH]2)cc1)c1ccccc1)C1CC1` [Compound 117], the pEC50 was over 9.00. Turning to `C(#Cc1ccc2nc([C@@H]3CCCN3)[nH]c2c1)c1ccc(-c2cnc([C@@H]3CCCN3)[nH]2)cc1` [Compound 1035], the pEC50 was 6.00 to 8.00. Still for that read-out and setting: the figure for `COC(=O)N[C@@H](C(=O)N1CCC[C@H]1c1ncc(-c2ccc(C#Cc3ccc(-c4cnc([C@@H]5CCCN5C(=O)NCc5ccccc5)[nH]4)cc3)cc2)[nH]1)c1ccccc1` [Compound 197] is over 9.00; for `O=C(N[C@@H](C(=O)N1CCC[C@H]1c1ncc(C#Cc2ccc(-c3cnc([C@@H]4CCCN4C(=O)[C@H](NC(=O)C4CC4)c4ccccc4)[nH]3)cc2)[nH]1)c1ccccc1)C1CC1` [Compound 100] it is over 9.00; for `COC(=O)N[C@H](C(=O)N[C@@H](C)c1ncc(-c2ccc(C#Cc3ccc(-c4cnc([C@H](C)NC(=O)[C@@H](NC(=O)OC)[C@@H](C)O)[nH]4)cc3)cc2)[nH]1)[C@@H](C)O` [Compound 969] it is over 9.00.

`COC(=O)NC1(C(=O)N2CCC[C@H]2c2ncc(-c3ccc(C#Cc4ccc5nc([C@@H]6CCCN6C(=O)C6(NC(=O)OC)CCCC6)[nH]c5c4)cc3)[nH]2)CCCC1` [Compound 1044]: the pEC50 was 6.00 to 8.00.

Turning to `CN(C)C(=O)N[C@@H](C(=O)N1CCC[C@H]1c1ncc(C#Cc2ccc(C#Cc3cnc([C@@H]4CCCN4C(=O)[C@H](NC(=O)N(C)C)c4ccccc4)[nH]3)cc2)[nH]1)c1ccccc1` [Compound 308], the pEC50 is over 9.00. Same read-out and setting: the figure for `O=C(NCC(=O)N1CCC[C@H]1c1ncc(C#Cc2ccc(-c3cnc([C@@H]4CCCN4C(=O)CNC(=O)C4CC4)[nH]3)cc2)[nH]1)C1CC1` [Compound 113] is 6.00 to 8.00. The same measure, in the same setting: the figure for `COC(=O)N1CCC[C@H]1C(=O)N1CCC[C@H]1c1ncc(-c2ccc(C#Cc3ccc4nc([C@@H]5CCCN5C(=O)[C@@H]5CCCN5C(=O)OC)[nH]c4c3)cc2)[nH]1` [Compound 1063] is 6.00 to 8.00; for `CC(C)[C@@H](NC(=O)OC(C)(C)C)C(=O)N1CCC[C@H]1C(=O)NCc1ccc(C#Cc2cnc([C@@H]3CCCN3C(=O)[C@H](NC(=O)OC(C)(C)C)C(C)C)[nH]2)cc1` [Compound 120] it is 6.00 to 8.00; for `COC(=O)N[C@@H](C(=O)N1CCC[C@H]1c1ncc(C#Cc2ccc(-c3cnc([C@@H]4CCCN4C(=O)[C@@H](c4ccccc4)N(C)C)[nH]3)cc2)[nH]1)c1ccccc1` [Compound 123] it is over 9.00. On the same count and under the same terms, the figure for `COC(=O)N[C@H](C(=O)N1CCC[C@H]1c1ncc(-c2ccc(C#Cc3ccc(-c4cnc([C@@H]5CCCN5C(=O)[C@@H](c5ccccc5)N5CCCCC5)[nH]4)cc3)cc2)[nH]1)C(C)C` [Compound 986] is over 9.00; for `COC(=O)N[C@H](C(=O)N1CCC[C@H]1c1ncc(-c2ccc(C#Cc3ccc4nc([C@@H]5CCCN5C(=O)[C@@H](NC(=O)OC)[C@@H](C)OC)[nH]c4c3)cc2)[nH]1)[C@@H](C)OC` [Compound 862] it is over 9.00. Regarding `COC(=O)N[C@H](C(=O)N1CCC[C@H]1c1ncc(C#Cc2ccc(-c3ccc4nc([C@@H]5CCCN5C(=O)[C@@H](NC(=O)OC)C(C)C)[nH]c4c3)cc2)[nH]1)C(C)C` [Compound 1084], the pEC50 is over 9.00. On the same count and under the same terms, the figure for `COC(=O)N[C@@H](C(=O)N1CCC[C@H]1c1ncc(-c2ccc(C#Cc3ccc(-c4cnc([C@@H]5CCCN5C(=O)c5nccn5C)[nH]4)cc3)cc2)[nH]1)c1ccccc1` [Compound 176] is over 9.00; for `CC(C)[C@@H](NC(=O)OC(C)(C)C)C(=O)N1CCC[C@H]1c1ncc(-c2ccc(C#Cc3ccc(-c4cnc([C@@H]5CCCN5C(=O)[C@H](NC(=O)OC(C)(C)C)C(C)C)[nH]4)cc3)cc2)[nH]1` [Compound 152] it is 6.00 to 8.00.

Turning to `COC(=O)N[C@@H](C(=O)N1CCC[C@H]1c1ncc(-c2ccc(C#Cc3ccc(C(=O)NC[C@@H]4CCCN4C(=O)[C@H](NC(=O)N4CCOCC4)c4ccccc4)cc3)cc2)[nH]1)c1ccccc1` [Compound 235], the pEC50 was over 9.00. Same read-out and setting: the figure for `O=C(N[C@@H](C(=O)N1CCC[C@H]1c1ncc(-c2ccc(C#Cc3ccc(-c4cnc([C@@H]5CCCN5C(=O)[C@@H](c5ccccc5)N5CCOCC5)[nH]4)cc3)cc2)[nH]1)c1ccccc1)C1CC1` [Compound 237] is over 9.00; for `CO[C@@H](C(=O)N1CCC[C@H]1c1ncc(-c2ccc(C#Cc3ccc(-c4cnc([C@@H]5CCCN5C(=O)[C@H](OC)c5ccccc5)[nH]4)cc3)cc2)[nH]1)c1ccccc1` [Compound 172] it is over 9.00. Still for that read-out and setting: the figure for `C[C@@H](NC(=O)[C@@H]1CCCN1C(=O)[C@H](NC(=O)C1CC1)c1ccccc1)c1ccc(C#Cc2ccc(-c3cnc([C@@H]4CCCN4C(=O)[C@H](NC(=O)C4CC4)c4ccccc4)[nH]3)cc2)cc1` [Compound 168] is over 9.00; for `C[C@@H](NC(=O)OC(C)(C)C)C(=O)N1CCC[C@H]1c1ncc(C#Cc2ccc(-c3cnc([C@@H]4CCCN4C(=O)[C@@H](C)NC(=O)OC(C)(C)C)[nH]3)cc2)[nH]1` [Compound 104] it is 8.00 to 9.00. The same measure, in the same setting: the figure for `CC(C)[C@H](NC(=O)OC(C)(C)C)C(=O)N1CCC[C@H]1c1ncc(-c2ccc(C#Cc3ccc(-c4cnc([C@@H]5CCCN5C(=O)[C@@H](NC(=O)OC(C)(C)C)C(C)C)[nH]4)cc3)cc2)[nH]1` [Compound 165] is 6.00 to 8.00; for `COC(=O)N[C@@H](C(=O)N1CCC[C@H]1c1ncc(C#Cc2ccc(C#Cc3cnc([C@@H]4CCCN4C(=O)[C@@H](c4ccccc4)N4CCCCC4)[nH]3)cc2)[nH]1)c1ccccc1` [Compound 312] it is over 9.00. Take `CC(C)(C)OC(=O)N[C@@H](C(=O)N1CCC[C@H]1C(=O)NCCc1ccc(C#Cc2cnc([C@@H]3CCCN3C(=O)[C@H](NC(=O)OC(C)(C)C)c3ccccc3)[nH]2)cc1)c1ccccc1` [Compound 124]: the pEC50 is over 9.00. Same read-out and setting: the figure for `COC(=O)N[C@H](C(=O)N1CCC[C@H]1c1ncc(C#Cc2ccc3cc(C#Cc4cnc([C@@H]5CCCN5C(=O)[C@@H](NC(=O)OC)C(C)C)[nH]4)ccc3c2)[nH]1)C(C)C` [Compound 1114] is over 9.00; for `CC(C)[C@@H](NC(=O)C1CC1)C(=O)N1CCC[C@H]1c1ncc(C#Cc2ccc(C#Cc3cnc([C@@H]4CCCN4C(=O)[C@H](NC(=O)C4CC4)C(C)C)[nH]3)cc2)[nH]1` [Compound 302] it is under 6.00; for `COC(=O)N[C@@H](C(=O)N1CCC[C@H]1c1ncc(-c2ccc(C#Cc3ccc(-c4cnc([C@@H]5CCCN5C(=O)[C@@H](c5ccccc5)N5CCCCC5)[nH]4)cc3)cc2)[nH]1)c1ccccc1` [Compound 188] it is over 9.00. `COC(=O)N[C@@H](C(=O)N1CCC[C@H]1c1ncc(-c2ccc(C#Cc3ccc(-c4cnc([C@@H]5CCCN5C(=O)[C@H](NC(=O)N5CC[C@@H](OC)C5)c5ccccc5)[nH]4)cc3)cc2)[nH]1)c1ccccc1` [Compound 271]: the pEC50 is over 9.00. The same measure, in the same setting: the figure for `COC(=O)N[C@H](C(=O)N[C@@H](C)c1ncc(-c2ccc(C#Cc3ccc(-c4cnc([C@@H]5CCCN5C(=O)[C@H](C(C)C)N(C)C)[nH]4)cc3)cc2)[nH]1)C(C)C` [Compound 963] is 8.00 to 9.00; for `COC(=O)N[C@@H](C(=O)N1CCC[C@H]1c1cc(-c2ccc(C#Cc3ccc(-c4cnc([C@@H]5CCCN5C(=O)[C@H](NC(=O)OC)c5ccccc5)[nH]4)cc3)cc2)n[nH]1)c1ccccc1` [Compound 219] it is over 9.00.

The same experiment, now with this note: Hepatitis C virus, Huh-7, read-out: Inhibition of HCV genotype 1b.
Turning to `COC[C@H](NC(=O)OC)C(=O)N1CCC[C@H]1c1ncc(-c2ccc(C#Cc3ccc4nc([C@@H]5CCCN5C(=O)[C@@H](NC(=O)OC)C(C)C)[nH]c4c3)cc2)[nH]1` [Compound 1236], the pEC50 is over 9.00. On the same count and under the same terms, the figure for `COC(=O)N[C@H](C(=O)N1CCC[C@H]1c1nc(C)c(C#Cc2ccc3cc(-c4cnc([C@@H]5CCCN5C(=O)[C@@H](NC(=O)OC)[C@@H](C)OC)[nH]4)ccc3c2)[nH]1)C1CCCC1` [Compound 1266] is over 9.00; for `COC(=O)NC(C(=O)N1CCC[C@H]1c1nc2ccc(C#Cc3ccc4cc(-c5cnc([C@@H]6CCCN6C(=O)[C@@H](NC(=O)OC)C6CCOCC6)[nH]5)ccc4n3)cc2[nH]1)C(C)C` (stereo partly shown) [Compound 1290] it is over 9.00; for `COC(=O)N[C@H](C(=O)N1CCC[C@H]1c1ncc(-c2ccc(C#Cc3ccc4nc([C@@H]5CCCN5C(=O)[C@@H](NC(=O)OC)C5CCCOC5)[nH]c4c3)cc2)[nH]1)C(C)C` (stereo partly shown) [Compound 1244] it is over 9.00.

Turning to `COC(=O)N[C@H](C(=O)N1CCC[C@H]1c1ncc(-c2ccc3cc(C#Cc4[nH]c([C@@H]5CCCN5C(=O)[C@@H](NC(=O)OC)C5CCCC5)nc4C(F)(F)F)ccc3c2)[nH]1)C1CCCC1` [Compound 1254], the pEC50 is over 9.00.

In the case of `COC(=O)N[C@H](C(=O)N1CCC[C@H]1c1ncc(-c2ccc3cc(C#Cc4[nH]c([C@@H]5CCCN5C(=O)[C@@H](NC(=O)OC)[C@@H](C)OC)nc4C(F)(F)F)ccc3c2)[nH]1)C(C)C` [Compound 1258], the pEC50 was over 9.00. The same measure, in the same setting: the figure for `COC(=O)N[C@H](C(=O)N1CCC[C@H]1c1nc2ccc(C#Cc3ccc4c(ccc5nc([C@@H]6CCCN6C(=O)[C@@H](NC(=O)OC)[C@@H](C)OC)[nH]c54)c3)cc2[nH]1)C(C)C` [Compound 1286] is over 9.00; for `COC(=O)N[C@H](C(=O)N1CCC[C@H]1c1ncc(-c2ccc(C#Cc3ccc(-c4cnc([C@@H]5CCCN5C(=O)[C@@H](NC(=O)OC)C(C)C)[nH]4)cc3C(=O)N3CCCC3)cc2)[nH]1)C(C)C` [Compound 1208] it is over 9.00; for `COC(=O)N[C@H](C(=O)N1CCC[C@H]1c1ncc(-c2ccc3cc(C#Cc4[nH]c([C@@H]5CCCN5C(=O)[C@@H](NC(=O)OC)C(C)C)nc4C(=O)O)ccc3c2)[nH]1)C(C)C` [Compound 1267] it is over 9.00. Consider `COC(=O)N[C@H](C(=O)N1CCC[C@H]1c1ncc(-c2ccc3cc(C#Cc4[nH]c([C@@H]5CCCN5C(=O)[C@@H](NC(=O)OC)C5CCOCC5)nc4C(F)(F)F)ccc3c2)[nH]1)C1CCOCC1` [Compound 1256], for which the pEC50 was over 9.00.
